Measured values as given in US9782371B2, “Composition for promoting remyelination in nerve cells comprising 2,5-dihydroxybenzenesulfonic acid and use thereof” (Samsung Electronics Co., Ltd., priority 2015, dated 2017).

How the values were obtained:
[1] = tested on: Mauthner axons and myelin in the central nervous system; assay: Remyelination of central nervous system (Mauthner axons) in MTZ-demyelinated transformed zebrafish, g-ratio; format: in vivo, Zebrafish (Danio rerio); settings: zebrafish ClaudinK line
Method: Transformed Zebrafish (Danio rerio) in which genes respectively encoding an Mbp:EGFP fusion protein and a Claudink:EGFP fusion protein that are specifically expressed in myelin and emit fluorescence by using promoters of a myelin basic protein (MBP) gene and a Claudink gene were prepared, by transforming Zebrafish cells with genes respectively encoding an Mbp:EGFP fusion protein and a Claudink:EGFP fusion protein. Specifically, the NfsB virulence gene encodes a nitroreductase (NTR) enzyme. […] However, when metronidazole (MTZ) is added to cells, the cells convert MTZ into a cytotoxic material by using NTR, which induces apoptosis. […]
FIG. 6 illustrates the results of GFP-originated fluorescence microscopy and red fluorescence microscopy with immunostaining by acetylated-tubulin that is expressed specific to axons, by using a confocal laser microscope on sections of Mauthner axons and myelin in the central nervous system of the zebrafish (ClaudinK:gal4::UAS:nfsB (NTR, toxin)::UAS:gfp) incubated under various conditions. […] The axon and fiber diameters were obtained by calculating the diameters from the intensities of GFP-originated fluorescence and red axonal fluorescence with the Image J program. […]

[2] = tested on: myelin surrounding axons of the posterior lateral line nerves (PLLs); assay: Remyelination of peripheral nervous system (PLL myelin) in MTZ-demyelinated transformed zebrafish, GFP-fluorescence confocal microscopy; format: in vivo, Zebrafish (Danio rerio)
Method: Transformed Zebrafish (Danio rerio) in which genes respectively encoding an Mbp:EGFP fusion protein and a Claudink:EGFP fusion protein that are specifically expressed in myelin and emit fluorescence by using promoters of a myelin basic protein (MBP) gene and a Claudink gene were prepared, by transforming Zebrafish cells with genes respectively encoding an Mbp:EGFP fusion protein and a Claudink:EGFP fusion protein. Specifically, the NfsB virulence gene encodes a nitroreductase (NTR) enzyme. […] However, when metronidazole (MTZ) is added to cells, the cells convert MTZ into a cytotoxic material by using NTR, which induces apoptosis. Genetically engineered zebrafish, i.e., transformed zebrafish that express the NfsB virulence gene specifically in differentiated oligodendrocytes and Schwann cells were prepared by using promoters of mbp and claudink genes that specifically operate in differentiated myelin to express myelin-specific genes bound to myelin, and using the Gal4-UAS transactivator system. Next, it was confirmed that the NfsB virulence gene was myelin-specifically expressed in the transformed zebrafish.
As a result, an animal model of demyelination that is induced in the presence of MTZ was established. Hereinafter, this animal model is also referred to as zebrafish (Mbp (or claudink):gal4::UAS:nfsB (NTR, toxin)::UAS:gfp). After removing the added MTZ substrate from the culture medium, the transformed zebrafish were then cultured in a culture medium free of MTZ for 1 day, followed by a recovery period. This study, described in greater detail below, confirmed that natural remyelination occurred in the demyelinated central nervous system and peripheral nervous system and that ES drug has an effect of promoting remyelination. […]

PMP22 = PMP22 protein expression by Western blotting in rat Schwann cells overexpressing human PMP22; format: cell-based
Method: Rat Schwann cells were inoculated at a concentration of about 10^5 cells/mL into each well of a 12-well plate including 2 mL of a Dulbecco's Modified Eagle's Medium (DMEM) containing 10% fetal bovine serum (FBS), 100 units/mL of penicillin, and 100 units/mL of streptomycin, and incubated in a 5%-CO2 incubator at about 37° C. to a cell density of about 60% to about 65%. […] Rat Schwann cells are often used in in vitro models for neuronal function and differentiation. The rat Schwann cells used herein were modified to consistently overexpress the human PMP22 gene by lentivital mediated integration of PMP22 into a chromosome and selective use of puromycin-resistant markers, thereby constructing a new rat Schwann PMP22 cell model. The rat Schwann cells (ATCC number; CRL-2768) were purchased from the American Type Culture Collection (ATCC).
After 2 mL of the culture medium was removed, the resulting rat Schwann cells were washed with phosphate buffered saline (PBS), followed by adding a lysis solution containing a 0.5% triton X-100 in PBS thereto, collecting the cells using a scraper, leaving the cells on ice for about 30 minutes, and then disrupting the cells. […]

With CCNCC.O=S(=O)(O)c1cc(O)ccc1O [ethamsylate, diethyl ammonium 2,5-dihydroxybenzene sulfonic acid] the “g-ratio (diameter ratio of axon to nerve fiber)” value ([1]; Mauthner axons, 10 μM ethamsylate vs MTZ treatment group, FIG. 8) was “remarkably reduced g-ratio”, the “regeneration or remyelination of demyelinated nerve cells in the central nervous system” value ([1]; incubated in presence of ethamsylate after MTZ, FIGS. 6 and 8) was “remyelinated with a significantly higher efficiency” and the “ratio of myelinated axons to total axons” value ([2]; zebrafish Claudink line, 10 μM ES vs MTZ treated sample, FIGS. 4 and 5) was “significantly higher”. The “remyelination of PLL myelin (GFP and acetylated-tubulin fluorescence)” value ([2]; zebrafish Claudink:gal4::UAS:nfsB::UAS:gfp, 10 μM ES after MTZ, FIG. 4) was “promote remyelination”, the “myelin in the peripheral nervous system (GFP-originated green fluorescence)” value ([2]; zebrafish Mbp:gal4::UAS:nfsB::UAS:gfp, MTZ 4.5-6 dpf, washed, 10 μM ES 6-7 dpf (about 1 day), FIG. 3 panel D) was “completely remyelinated” and the “expression level of PMP22 protein” value (PMP22; 10 μM ethamsylate, incubation for 0.5, 1, 12, 24 and 48 hours, vs 0 hour control, FIG. 1 panel B) was “decreased compared to the control group”. For the same molecule, the “amount of PMP22 protein expressed” value (PMP22; 0.1, 1, 10, 100 μM ethamsylate in DMSO, about 24 hours, vs DMSO control, FIG. 1 panel A, n=4) was “decrease in the amount of PMP22 protein expressed”.
